These results are taken from PMC8330735 (Journal of Enzyme Inhibition and Medicinal Chemistry, 2021).

Series [1] concerns the target T1, human recombinant COX-2 (Homo sapiens, UniProt P35354).
T1 sequence (P35354 18-604): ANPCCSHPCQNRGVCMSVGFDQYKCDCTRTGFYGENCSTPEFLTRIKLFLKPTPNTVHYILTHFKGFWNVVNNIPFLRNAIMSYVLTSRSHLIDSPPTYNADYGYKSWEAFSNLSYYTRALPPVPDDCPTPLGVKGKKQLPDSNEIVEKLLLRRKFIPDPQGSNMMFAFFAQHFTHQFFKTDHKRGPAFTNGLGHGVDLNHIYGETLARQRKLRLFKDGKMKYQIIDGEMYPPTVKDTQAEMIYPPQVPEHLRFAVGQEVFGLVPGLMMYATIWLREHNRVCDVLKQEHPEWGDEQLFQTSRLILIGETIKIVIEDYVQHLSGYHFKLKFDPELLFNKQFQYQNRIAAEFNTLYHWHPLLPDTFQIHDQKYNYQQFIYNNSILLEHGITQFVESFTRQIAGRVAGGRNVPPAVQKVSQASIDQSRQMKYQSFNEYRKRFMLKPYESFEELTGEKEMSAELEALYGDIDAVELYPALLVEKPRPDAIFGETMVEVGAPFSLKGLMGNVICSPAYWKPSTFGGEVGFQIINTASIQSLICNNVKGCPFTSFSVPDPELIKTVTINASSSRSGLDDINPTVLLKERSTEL
Briefly: In vitro COX-2 inhibitory assay (colorimetric Cayman kit). To be noted: for Selectivity Index (SI): COX-1 IC50/COX-2 IC50.
Procedure: (§1) All the newly synthesised compounds were tested for their ability to inhibit COX-1 and COX-2 enzymes using a screening assay method.

Series [2] concerns the target T2, ovine COX-1 (Ovis aries, UniProt P05979).
T2 sequence (P05979 25-600): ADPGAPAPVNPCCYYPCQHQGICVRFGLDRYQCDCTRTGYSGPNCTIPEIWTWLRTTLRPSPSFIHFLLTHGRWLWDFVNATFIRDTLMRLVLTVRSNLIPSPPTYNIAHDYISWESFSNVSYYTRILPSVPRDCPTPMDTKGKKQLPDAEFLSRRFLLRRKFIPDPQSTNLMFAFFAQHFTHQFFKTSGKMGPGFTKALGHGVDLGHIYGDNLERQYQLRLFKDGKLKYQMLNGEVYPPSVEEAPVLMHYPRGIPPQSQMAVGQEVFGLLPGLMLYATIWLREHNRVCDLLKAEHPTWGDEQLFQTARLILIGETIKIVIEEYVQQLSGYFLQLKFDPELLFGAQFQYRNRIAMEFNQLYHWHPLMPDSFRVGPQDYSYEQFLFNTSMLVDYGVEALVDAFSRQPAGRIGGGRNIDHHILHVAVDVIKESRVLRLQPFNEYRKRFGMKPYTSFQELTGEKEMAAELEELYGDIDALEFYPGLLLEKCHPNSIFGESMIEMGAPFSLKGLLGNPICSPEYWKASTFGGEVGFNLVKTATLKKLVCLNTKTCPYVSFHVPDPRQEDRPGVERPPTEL
Nature of the series: In vitro COX-1 inhibitory assay (colorimetric Cayman kit).
Procedure: as §1

Series [3] concerns NO production in LPS-activated RAW 264.7 macrophages. Nature of the series: NO production in LPS-activated RAW 264.7 macrophages (DAF-FM). The class given is cell-based. To be noted: Mus musculus, RAW264.7; LPS 1 µg/mL activated RAW 264.7. The protocol: HCA7 colorectal cancer cell line was obtained from Sigma. […] Louis, MO) containing 10% heat-inactivated foetal bovine serum (HI-FBS) (Gibco, USA), 100 μg/mL streptomycin (Invitrogen, USA), and […] penicillin (Invitrogen, USA)[40]. HCA7 and RAW 264.7 cells were cultured in Dulbecco's minimal essential media (DMEM, Invitrogen) containing 10% HI-FBS, sodium pyruvate (1 mM), penicillin ([…]), and streptomycin (100 mg/m)[41]^,[42]. […] Molecular Probes, USA). Briefly, RAW 264.7 cells were cultured in black 96-well plates (200,000 cells/mL, 100 µl/well) for 24 h. […] The fluorescence intensity, which is directly proportional to NO levels, was quantified, as detailed in our previous study. IC50 values were calculated from the dose–response curves.

Series [4] has as its system carrageenan-induced rat paw oedema. Briefly: Carrageenan-induced rat paw oedema test. It counts as in vivo. Conditions: compounds and celecoxib 50 mg/kg, ibuprofen and indomethacin 20 mg/kg; for Mean oedema thickness 1h: 1 h after carrageenan; for Mean oedema thickness 1h / Mean oedema thickness 2h / Mean oedema thickness 3h / Mean oedema thickness 4h / Mean oedema thickness 5h / Mean oedema thickness 24h / Mean oedema thickness 0h: mean ± SEM, n = 5; for Mean oedema thickness 2h: 2 h after carrageenan; for Mean oedema thickness 3h: 3 h after carrageenan; for Mean oedema thickness 4h: 4 h after carrageenan; for Mean oedema thickness 5h: 5 h after carrageenan; for Mean oedema thickness 24h: 24 h after carrageenan; for Mean oedema thickness 0h: before carrageenan (0 h); for Average oedema inhibition%: from area under the curve of all time points. The procedure: The rats were divided into nine groups (n = 5/group). All tested compounds were suspended in 1% Tween-80. Group 1, controls, were given the vehicle (1% Tween80, 10 ml/kg). […] The rats were given the drugs 1 h before the injection of carrageenan solution (1% in 0.9% NaCl, 0.1 ml) (Sigma Aldrich, USA) in the sub-planter tissue of the right hind paw. The paw thickness (mm) was measured using a calliper before (0 h) and after carrageenan injection at 1, 2, 3, 4, 5 and 24 h. The inhibition of oedema thickness was calculated using the following formula (control– drug/control) × 100.
(In general: Carrageenan injected into the paw causes an acute inflammation.)

The test system of series [5] is stomach ulceration in rats. To be noted: rat, in vivo, 2 days.
Procedure: The rats from the previous experiment were fasted for 12 h., followed by the administration of additional doses of the selected compounds or the two references for two consecutive days. Six hrs after the last treatment, the animals were sacrificed, and their stomachs were removed, washed with saline solution (0.9%) and examined for ulceration using a magnifying lens. The ulcer scores were estimated according to the method prescribed by Kulkarni and as detailed in our previous studies[36–38]. The following scores were individually assigned to each lesion: normal coloured stomach, 0; red colouration, 0.5; spot ulcers, 1; haemorrhagic streaks, 1.5; ulcer >3 but <5 mm, 2; and ulcers >5 mm, 3.
The test system of series [6] is ROS production in LPS-activated RAW 264.7 macrophages. Nature of the series: ROS production in LPS-activated RAW 264.7 macrophages (DCFH-DA). The class given is cell-based. Conditions: Mus musculus, RAW264.7; LPS 1 µg/mL activated RAW 264.7. The protocol:
HCA7 colorectal cancer cell line was obtained from Sigma. […] Louis, MO) containing 10% heat-inactivated foetal bovine serum (HI-FBS) (Gibco, USA), 100 μg/mL streptomycin (Invitrogen, USA), and […] penicillin (Invitrogen, USA)[40]. HCA7 and RAW 264.7 cells were cultured in Dulbecco's minimal essential media (DMEM, Invitrogen) containing 10% HI-FBS, sodium pyruvate (1 mM), penicillin ([…]), and streptomycin (100 mg/m)[41]^,[42]. […] The cells were cultured, incubated with the different test compounds, and activated with LPS (1 µg/mL) as detailed above. […] IC50 values were calculated from the dose–response curves.

As usually defined, the IC50 is the concentration that inhibits the measured activity by half. What is called melting point is the temperature, or range, at which the solid turns liquid. As for `CC(C)Cc1ccc(C(C)C(=O)NN2C(=O)c3ccccc3N(C)C2c2ccc(F)cc2)cc1` (centres unmarked) [7e], the melting point was in the range of 90 to 95 °C. Besides, in series [1], the IC50 is 0.04 µM and the “Selectivity Index (SI)” value was determined as 296.25. In series [2], this molecule returned an IC50 of 11.8 ± 0.15 µM.
The molecule `COc1ccc(C2N(NC(=O)Cc3c[nH]c4ccccc34)C(=O)c3ccccc3N2C)cc1` (centres unmarked) [4c, 2-(1 h-indol-3-yl)-N-(2-(4-methoxyphenyl)-1-methyl-4-oxo-1,4-dihydroquinazolin-3(2H)-yl)acetamide] had a melting point of 83 to 85 °C. In series [1], the 50% inhibitory concentration (IC50) came to 0.03 µM and the “Selectivity Index (SI)” value came out at 373.67. The molecule further returned a half-inhibitory concentration (IC50) in series [2] of 11.2 ± 0.13 µM.
For `O=C(CSc1nc2ccccc2c(=O)n1NC(=O)c1ccccc1)NNC(=O)c1ccccc1` [14a, N-(2-((2-(2-benzoylhydrazinyl)-2-oxoethyl)thio)-4-oxoquinazolin-3(4H)-yl)benzamide], in that order: 194 to 198 °C, 0.03 µM, 362.00 and 10.9 ± 0.2 µM.
`NNC(=O)CSc1nc2ccccc2c(=O)n1NC(=O)c1ccccc1` [13a, N-(2-((2-hydrazinyl-2-oxoethyl)thio)-4-oxoquinazolin-3(4H)-yl)benzamide]: the melting point lay within 208 to 213 °C. In addition, in series [1], the half-maximal inhibitory concentration (IC50) was 0.04 µM and the “Selectivity Index (SI)” value worked out at 254.75. This molecule also displayed an IC50 in series [2] of 10.2 ± 0.14 µM.
`CC(C)Cc1ccc(C(C)C(=O)NN2C(=O)c3ccccc3N(C)C2c2ccccc2)cc1` (centres unmarked) [7a, 2-(4-Isobutylphenyl)-N-(1-methyl-4-oxo-2-phenyl-1,4-dihydroquinazolin-3(2H)-yl) propenamide]: the melting point was in the range of 85 to 89 °C. In series [1], the IC50 was 0.05 ± 0.13 µM and the “Selectivity Index (SI)” value is reported as 255.02. Moreover, in series [2], the IC50 stood at 12.76 ± 0.1 µM.
Take `COc1ccc2c(c1)c(CC(=O)O)c(C)n2C(=O)c1ccc(Cl)cc1` [Indomethacin, reference compound]: in series [3], 25.3 ± 1.01 µM corresponded to half-maximal inhibition (IC50). In series [4], the “Mean oedema thickness 1h” value came out at 2.00 ± 0.14 mm, the “Mean oedema thickness 2h” value is 2.21 ± 0.12 mm, the “Mean oedema thickness 3h” value is listed as 1.82 ± 0.13 mm and the “Mean oedema thickness 4h” value was 2.02 ± 0.16 mm. For the same molecule, in series [4], the “Mean oedema thickness 5h” value is on record as 1.87 ± 0.18 mm, the “Mean oedema thickness 24h” value is reported as 0.49 ± 0.10 mm, the “Mean oedema thickness 0h” value was 0.00 ± 0.00 mm and the Average oedema inhibition% is recorded as 33.81%. Further, in series [5], the “Average Ulcer number” value was determined as 12.4, the “Lesion Incidence (%)” value is listed as 100% and the “Number of rats with ulcer” value worked out at 5. In addition, half-maximal inhibition in series [6] (IC50) required 68.9 ± 1.29 µM.
`O=C(CSc1nc2ccccc2c(=O)n1NC(=O)Cc1ccccc1)NNC(=O)c1ccc(Cl)cc1` [14d, N-(2-((2-(2-(4-chlorobenzoyl)hydrazinyl)-2-oxoethyl)thio)-4-oxoquinazolin-3(4H)-yl)-2-phenylacetamide] yielded a melting point of 221 to 226 °C. For the same molecule, in series [1], the 50% inhibitory concentration (IC50) amounted to 0.04 µM and the “Selectivity Index (SI)” value amounted to 314.00. In series [2], this molecule showed an IC50 of 12.56 ± 0.11 µM.
Turning to `COc1ccc(C2N(NC(=O)C(C)c3ccc(CC(C)C)cc3)C(=O)c3ccccc3N2C)cc1` (centres unmarked) [7d, 2-(4-Isobutylphenyl)-N-(2-(4-methoxyphenyl)-1-methyl-4-oxo-1,4-dihydroquinazolin-3(2H)-yl) propenamide], the melting point was in the range of 92 to 95 °C. For the same molecule, in series [1], the IC50 came to 0.04 µM and the “Selectivity Index (SI)” value was found to be 359.25. The molecule further yielded a half-maximal inhibitory concentration (IC50) in series [2] of 14.4 ± 0.16 µM.
`O=C(CSc1nc2ccccc2c(=O)n1NC(=O)c1ccccc1)NNC(=O)c1ccc(Cl)cc1` [14b, N-(2-((2-(2-(4-chlorobenzoyl)hydrazinyl)-2-oxoethyl)thio)-4 oxoquinazolin-3(4H)-yl)benzamide] came in with a melting point of 215 to 220 °C. In addition, in series [1], the IC50 was 0.04 µM and the “Selectivity Index (SI)” value is 324.5. For the same molecule, in series [2], 12.98 ± 0.12 µM corresponded to half-maximal inhibition (IC50).
On to `CC(C)Cc1ccc(C(C)C(=O)O)cc1` (centres unmarked) [Ibuprofen, reference compound], for which the IC50 in series [3] was found to be 18.8 ± 1.19 µM. In series [4], the “Mean oedema thickness 1h” value stood at 1.76 ± 0.07 mm, the “Mean oedema thickness 2h” value stood at 2.00 ± 0.15 mm, the “Mean oedema thickness 3h” value was found to be 1.74 ± 0.08 mm and the “Mean oedema thickness 4h” value is listed as 1.23 ± 0.16 mm. In addition, in series [4], the “Mean oedema thickness 5h” value was determined as 1.36 ± 0.18 mm, the “Mean oedema thickness 24h” value is listed as 0.48 ± 0.15 mm, the “Mean oedema thickness 0h” value amounted to 0.00 ± 0.00 mm and the Average oedema inhibition% was 47.18%. Besides, in series [5], the “Average Ulcer number” value is 3.8, the “Lesion Incidence (%)” value is on record as 100% and the “Number of rats with ulcer” value is reported as 5. In series [6], this molecule returned a 50% inhibitory concentration (IC50) of 36.4 ± 1.45 µM.
As for `CC(C)Cc1ccc(C(C)C(=O)NN2C(=O)c3ccccc3N(C)C2c2ccc(Cl)cc2)cc1` (centres unmarked) [7b, N-(2-(4-chlorophenyl)-1-methyl-4-oxo-1,4-dihydroquinazolin-3(2H)-yl)-2–(4-isobutylphenyl) propenamide], the melting point is 120 to 125 °C. In addition, in series [1], the 50% inhibitory concentration (IC50) came to 0.04 µM and the “Selectivity Index (SI)” value stood at 333.75. In series [2], this molecule gave a 50% inhibitory concentration (IC50) of 13.35 ± 0.1 µM.
